Measured values as given in the supplement of paper PMC10627819.

How the values were obtained:
S. pneumoniae D39V [1] = assay: fitness (endpoint OD595 vs no drug) (fraction); higher = more growth
In short: (§1)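 Cultures at OD595 0.01 were dispensed into 384-well plates in TSB, LB Lennox or CY and incubated at 37 °C. Every 30 min for 14 h, OD595 was read and corrected by the first reading. Fitness is the optical density at entry into stationary phase relative to the robust mean of no-drug control wells, capped at 1.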

S. aureus DSM 20231 [2] = assay: as above
In short: as §1

S. pneumoniae D39V [3] = assay: Bliss interaction score (quartile over a dose matrix) (fitness difference); higher = more antagonism (negative = synergy)
In short: (§2)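 The Bliss score was calculated by subtracting the expected fitness, the product of single-drug values, from the observed fitness. OD595 at entry into stationary phase, over the plate's robust no-drug mean and capped at 1, served as the fitness readout. Single-drug values were inferred from combination data, and scores are summarised by quartiles across technical, biological and donor/recipient replicates.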

S. aureus Newman [4] = assay: as above
In short: as §2

S. aureus DSM 20231 [5] = assay: as above
In short: as §2

B. subtilis 168 [6] = assay: as above
In short: as §2

S. aureus Newman [7] = assay: fitness (endpoint OD595 vs no drug) (fraction); higher = more growth
In short: as §1

B. subtilis 168 [8] = assay: as above
In short: as §1
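Throughout, for Bliss interaction score (quartile over a dose matrix): first quartile when negative (synergy) and third quartile when positive (antagonism).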

CCC[C@@H]1C[C@@H](C(=O)N[C@@H]([C@H]2O[C@H](SC)[C@H](O)[C@@H](O)[C@H]2O)[C@@H](C)O)N(C)C1 [Lincomycin] + CN[C@H](CC(C)C)C(=O)N[C@H]1C(=O)N[C@@H](CC(N)=O)C(=O)N[C@H]2C(=O)N[C@H]3C(=O)N[C@H](C(=O)N[C@H](C(=O)O)c4cc(O)cc(O)c4-c4cc3ccc4O)[C@H](O)c3ccc(c(Cl)c3)Oc3cc2cc(c3O[C@@H]2O[C@H](CO)[C@@H](O)[C@H](O)[C@H]2O[C@H]2C[C@](C)(N)[C@H](O)[C@H](C)O2)Oc2ccc(cc2Cl)[C@H]1O [Vancomycin]
Details | fitness
S. aureus DSM 20231 [2], first compound 0.1 µg/mL, partner 0.1875 µg/mL | 0.805
S. aureus DSM 20231 [2], first compound 0.1 µg/mL, partner 0.375 µg/mL | 0.873
S. aureus DSM 20231 [2], first compound 0.1 µg/mL, partner 0.75 µg/mL | 0.922
S. aureus DSM 20231 [2], first compound 0.2 µg/mL, partner 0.1875 µg/mL | 0.679
S. aureus DSM 20231 [2], first compound 0.2 µg/mL, partner 0.375 µg/mL | 0.701
S. aureus DSM 20231 [2], first compound 0.2 µg/mL, partner 0.75 µg/mL | 0.745
S. aureus DSM 20231 [2], first compound 0.4 µg/mL, partner 0.1875 µg/mL | 0.346
S. aureus DSM 20231 [2], first compound 0.4 µg/mL, partner 0.375 µg/mL | 0.336
S. aureus DSM 20231 [2], first compound 0.4 µg/mL, partner 0.75 µg/mL | 0.371
S. pneumoniae D39V [1], first compound 0.2 µg/mL, partner 0.03125 µg/mL | 0.706
S. pneumoniae D39V [1], first compound 0.2 µg/mL, partner 0.0625 µg/mL | 0.695
S. pneumoniae D39V [1], first compound 0.2 µg/mL, partner 0.125 µg/mL | 0.489
S. pneumoniae D39V [1], first compound 0.215 µg/mL, partner 0.125 µg/mL | 0.845
S. pneumoniae D39V [1], first compound 0.215 µg/mL, partner 0.25 µg/mL | 0.782
S. pneumoniae D39V [1], first compound 0.4 µg/mL, partner 0.03125 µg/mL | 0.61
S. pneumoniae D39V [1], first compound 0.4 µg/mL, partner 0.0625 µg/mL | 0.604
S. pneumoniae D39V [1], first compound 0.43 µg/mL, partner 0.125 µg/mL | 0.792
S. pneumoniae D39V [1], first compound 0.43 µg/mL, partner 0.25 µg/mL | 0.699
S. pneumoniae D39V [1], first compound 0.43 µg/mL, partner 0.5 µg/mL | 0.248
S. pneumoniae D39V [1], first compound 0.8 µg/mL, partner 0.03125 µg/mL | 0.279
S. pneumoniae D39V [1], first compound 0.8 µg/mL, partner 0.125 µg/mL | 0.191
S. pneumoniae D39V [1], first compound 0.86 µg/mL, partner 0.125 µg/mL | 0.356
S. pneumoniae D39V [1], first compound 0.86 µg/mL, partner 0.25 µg/mL | 0.311
S. pneumoniae D39V [1], first compound 0.86 µg/mL, partner 0.5 µg/mL | 0.0793

Details | Bliss interaction score
B. subtilis 168 [6] | 0.0223
S. aureus DSM 20231 [5] | -0.0567
S. aureus Newman [4] | 0.0733
S. pneumoniae D39V [3] | 0.117

O=C(N[C@H](CO)[C@H](O)c1ccc([N+](=O)[O-])cc1)C(Cl)Cl [Chloramphenicol] + CC(=O)NC[C@H]1CN(c2ccc(N3CCOCC3)c(F)c2)C(=O)O1 [Linezolid]
fitness, S. aureus DSM 20231 [2]
Details | first compound 0.75 µg/mL | first compound 1.5 µg/mL | first compound 3 µg/mL
partner 0.125 µg/mL | 0.609 | 0.321 | 0.11
partner 0.25 µg/mL | 0.353 | 0.227 | 0.0855
partner 0.5 µg/mL | 0.128 | 0.119 | 0.0711

S. aureus DSM 20231 [2], partner 1 µg/mL, one replicate
Details | fitness
first compound 0.75 µg/mL | 0.0506
first compound 1.5 µg/mL | 0.0474
first compound 3 µg/mL | 0.0396

Details | Bliss interaction score
B. subtilis 168 [6] | -0.141
S. aureus DSM 20231 [5] | -0.152
S. aureus Newman [4] | -0.112
S. pneumoniae D39V [3] | 0.0462

COc1cc(Cc2cnc(N)nc2N)cc(OC)c1OC [Trimethoprim] + CN[C@H](CC(C)C)C(=O)N[C@H]1C(=O)N[C@@H](CC(N)=O)C(=O)N[C@H]2C(=O)N[C@H]3C(=O)N[C@H](C(=O)N[C@H](C(=O)O)c4cc(O)cc(O)c4-c4cc3ccc4O)[C@H](O)c3ccc(c(Cl)c3)Oc3cc2cc(c3O[C@@H]2O[C@H](CO)[C@@H](O)[C@H](O)[C@H]2O[C@H]2C[C@](C)(N)[C@H](O)[C@H](C)O2)Oc2ccc(cc2Cl)[C@H]1O [Vancomycin]
S. aureus DSM 20231 [2], first compound 0.125 µg/mL, one replicate
Details | fitness
partner 0.1875 µg/mL | 0.667
partner 0.375 µg/mL | 0.898
partner 0.75 µg/mL | 0.984

fitness, S. aureus DSM 20231 [2]
Details | first compound 0.25 µg/mL | first compound 0.5 µg/mL | first compound 1 µg/mL
partner 0.1875 µg/mL | 0.604 | 0.0644 | 0.0331
partner 0.375 µg/mL | 0.613 | – | 0.0412
partner 0.75 µg/mL | 0.62 | – | 0.0581

Details | Bliss interaction score
B. subtilis 168 [6] | 0.0634
S. aureus DSM 20231 [5] | -0.0623
S. aureus Newman [4] | -0.0768
S. pneumoniae D39V [3] | 0.119

COc1c(N2C[C@@H]3CCCN[C@@H]3C2)c(F)cc2c(=O)c(C(=O)O)cn(C3CC3)c12 [Moxifloxacin] + CN[C@@H]1[C@H](O[C@H]2[C@H](O[C@H]3[C@H](O)[C@@H](O)[C@H](N=C(N)N)[C@@H](O)[C@@H]3N=C(N)N)O[C@@H](C)[C@]2(O)C=O)O[C@@H](CO)[C@H](O)[C@H]1O [Streptomycin]
fitness, S. pneumoniae D39V [1], one replicate
Details | first compound 0.0037 µg/mL | first compound 0.0075 µg/mL | first compound 0.015 µg/mL
partner 2 µg/mL | 0.903 | 0.908 | 0.919
partner 16 µg/mL | 0.699 | 0.743 | 0.685

fitness
Details | partner 1 µg/mL | partner 2 µg/mL | partner 4 µg/mL | partner 8 µg/mL
B. subtilis 168 [8], first compound 0.0312 µg/mL | – | 0.0439 | 0.0414 | 0.0382
B. subtilis 168 [8], first compound 0.0625 µg/mL | – | 0.0428 | 0.0341 | 0.0226
B. subtilis 168 [8], first compound 0.125 µg/mL | – | 0.041 | 0.0379 | 0.0381
B. subtilis 168 [8], first compound 2 µg/mL | – | 0.0315 | 0.0296 | 0.0146
B. subtilis 168 [8], first compound 4 µg/mL | – | 0.0231 | 0.0178 | 0.0188
B. subtilis 168 [8], first compound 8 µg/mL | – | 0.013 | 0.0133 | 0.0206
S. aureus Newman [7], first compound 0.0075 µg/mL | 0.834 | 0.733 | – | –
S. aureus Newman [7], first compound 0.015 µg/mL | – | 0.606 | – | –
S. aureus Newman [7], first compound 0.03 µg/mL | – | 0.201 | 0.0711 | –
S. pneumoniae D39V [1], first compound 0.0037 µg/mL | – | – | 0.891 | 0.785
S. pneumoniae D39V [1], first compound 0.005 µg/mL | – | 0.922 | 0.944 | 0.892
S. pneumoniae D39V [1], first compound 0.0075 µg/mL | – | – | 0.904 | 0.837
S. pneumoniae D39V [1], first compound 0.01 µg/mL | – | 0.94 | 0.958 | 0.925
S. pneumoniae D39V [1], first compound 0.015 µg/mL | – | – | 0.882 | 0.82
S. pneumoniae D39V [1], first compound 0.02 µg/mL | – | 0.881 | 0.9 | 0.861

Details | Bliss interaction score
B. subtilis 168 [6] | 0.0188
S. aureus DSM 20231 [5] | 0.0517
S. aureus Newman [4] | -0.031
S. pneumoniae D39V [3] | 0.0604
